In PubChem BioAssay AID248 (DTP/NCI, 2004):
“And” between values parts separate entries of the source, which are not always exact repeats. Identical values can stand only once. Toxic doses and inconclusive results are not listed. No stated cut-off is given here; in the data, active means T/C of 150% or more; inactive means T/C below 125%.

Tested on: L1210 leukemia ip in BDF1 mice, survival T/C
Assay: NCI In Vivo Anticancer Drug Screen. Data for tumor model L1210 Leukemia (intraperitoneal) in B6D2F1 (BDF1) mice
Settings: endpoint: mean survival time, higher = longer survival
How it was run: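 In this screen, tumor-bearing mice given compound are compared to those given vehicle, and their survival values are reported as a treated-to-control quotient.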

[1] = dose: 100.0 mg/kg/injection, schedule: Q04DX003 (ip), vehicle: saline with Tween-80
[2] = dose: 100.0 mg/kg/injection, schedule: Q04DX002 (ip), vehicle: Klucel (hydroxypropylcellulose) (HPC)
[3] = dose: 200.0 mg/kg/injection, schedule: Q04DX002 (ip), vehicle: Klucel (hydroxypropylcellulose) (HPC)
[4] = dose: 100.0 mg/kg/injection, schedule: Q01DX001 (ip), vehicle: Klucel (hydroxypropylcellulose) (HPC)
[5] = dose: 100.0 mg/kg/injection, schedule: Q01DX009 (ip), vehicle: Klucel (hydroxypropylcellulose) (HPC)
[6] = dose: 100.0 mg/kg/injection, schedule: Q04DX003 (ip), vehicle: Klucel (hydroxypropylcellulose) (HPC)
[7] = dose: 200.0 mg/kg/injection, schedule: Q01DX009 (ip), vehicle: Klucel (hydroxypropylcellulose) (HPC)
[8] = dose: 200.0 mg/kg/injection, schedule: Q04DX003 (ip), vehicle: Klucel (hydroxypropylcellulose) (HPC)
[9] = dose: 400.0 mg/kg/injection, schedule: Q01DX009 (ip), vehicle: Klucel (hydroxypropylcellulose) (HPC)
[10] = dose: 400.0 mg/kg/injection, schedule: Q04DX003 (ip), vehicle: Klucel (hydroxypropylcellulose) (HPC)
[11] = dose: 200.0 mg/kg/injection, schedule: Q01DX001 (ip), vehicle: Klucel (hydroxypropylcellulose) (HPC)
[12] = dose: 400.0 mg/kg/injection, schedule: Q04DX002 (ip), vehicle: Klucel (hydroxypropylcellulose) (HPC)
[13] = dose: 6.25 mg/kg/injection, schedule: Q01DX009 (ip), vehicle: saline with Tween-80
[14] = dose: 100.0 mg/kg/injection, schedule: Q01DX001 (ip), vehicle: saline
[15] = dose: 200.0 mg/kg/injection, schedule: Q01DX001 (ip), vehicle: saline
[16] = dose: 400.0 mg/kg/injection, schedule: Q01DX001 (ip), vehicle: saline

Measured: T/C

FC1(F)SC2CC/C=C\CCC2C1(F)F (stereo not given)
inactive: dose: 0.75 mg/kg/injection, schedule: Q04DX003 (ip), vehicle: Klucel (hydroxypropylcellulose) (HPC) 90 % of control | dose: 1.5 mg/kg/injection, schedule: Q01DX009 (ip), vehicle: Klucel (hydroxypropylcellulose) (HPC) 96 % of control | dose: 1.5 mg/kg/injection, schedule: Q04DX003 (ip), vehicle: Klucel (hydroxypropylcellulose) (HPC) 98 % of control | dose: 3.0 mg/kg/injection, schedule: Q01DX009 (ip), vehicle: Klucel (hydroxypropylcellulose) (HPC) 102 % of control | dose: 3.0 mg/kg/injection, schedule: Q04DX003 (ip), vehicle: Klucel (hydroxypropylcellulose) (HPC) 102 % of control | dose: 3.12 mg/kg/injection, schedule: Q04DX003 (ip), vehicle: Klucel (hydroxypropylcellulose) (HPC) 86 % of control | dose: 12.0 mg/kg/injection, schedule: Q04DX003 (ip), vehicle: Klucel (hydroxypropylcellulose) (HPC) 88 % of control

C/C(=N/C(=O)NN)c1ccc(Cl)cc1
inactive: dose: 100.0 mg/kg/injection, schedule: Q01DX001 (ip), vehicle: saline with Tween-80 108 % of control | [1] 93 % of control | dose: 200.0 mg/kg/injection, schedule: Q01DX001 (ip), vehicle: saline with Tween-80 95 % of control | dose: 200.0 mg/kg/injection, schedule: Q04DX003 (ip), vehicle: saline with Tween-80 98 % of control | dose: 400.0 mg/kg/injection, schedule: Q01DX001 (ip), vehicle: saline with Tween-80 101 % of control

Cc1c(Br)c(C)c(Br)c(OCC(=O)O)c1Br
inactive: [2] 98 % of control | [3] 109 % of control

O=C1C=C(C(c2ccccc2)c2ccccc2)C(=O)C=C1NS(=O)(=O)c1ccccc1
inactive: dose: 25.0 mg/kg/injection, schedule: Q01DX001 (ip), vehicle: Klucel (hydroxypropylcellulose) (HPC) 106 % of control | dose: 50.0 mg/kg/injection, schedule: Q01DX001 (ip), vehicle: Klucel (hydroxypropylcellulose) (HPC) 97 % of control | [4] 95 % of control

O=C(c1ccc(Cl)cc1)C1Cc2ccccc2C1=O (stereo not given)
inactive: [5] 97 % of control | [6] 101 % of control | [7] 94 % of control | [8] 101 % of control | [9] 91 % of control | [10] 97 % of control

C[n+]1cccc(C(=O)N/N=C/C=C/c2ccccc2)c1
inactive: dose: 50.0 mg/kg/injection, schedule: Q01DX009 (ip), vehicle: saline with Tween-80 96 % of control | dose: 100.0 mg/kg/injection, schedule: Q01DX009 (ip), vehicle: saline with Tween-80 100 % of control

O=C1N(c2nncs2)CCN1[N+](=O)[O-]
inactive: [5] 95 % of control | [6] 95 % of control | [7] 98 % of control | [8] 98 % of control | [9] 103 % of control | [10] 102 % of control

CC(C)(C)[C]1=Nc2cccc[c]2[Ge]1([CH3])[CH3]
inactive: dose: 100.0 mg/kg/injection, schedule: Q04DX002 (ip), vehicle: saline with Tween-80 108 % of control | dose: 200.0 mg/kg/injection, schedule: Q04DX002 (ip), vehicle: saline with Tween-80 93 % of control | dose: 400.0 mg/kg/injection, schedule: Q04DX002 (ip), vehicle: saline with Tween-80 97 % of control

CNC(=O)Nc1ccc(OC)cc1Cl
inactive: [5] 98 % of control and 87 % of control | [7] 98 % of control | [9] 95 % of control and 90 % of control

Cn1ccnc1CC(C)(O)c1ccccc1 (stereo not given)
inactive: [4] 92 % of control | [5] 97 % of control and 98 % of control | [2] 96 % of control | [11] 97 % of control | [7] 108 % of control and 88 % of control | [3] 108 % of control | [9] 102 % of control | [12] 103 % of control

CCCCCCCCCCCCCCCCCC[Se][Se]CCCCCCCCCCCCCCCCCC
inactive: [13] 94 % of control | dose: 12.5 mg/kg/injection, schedule: Q01DX009 (ip), vehicle: saline with Tween-80 93 % of control | dose: 25.0 mg/kg/injection, schedule: Q01DX009 (ip), vehicle: saline with Tween-80 98 % of control and 89 % of control | [1] 87 % of control | dose: 400.0 mg/kg/injection, schedule: Q04DX003 (ip), vehicle: saline with Tween-80 86 % of control

O=C(OCCBr)Oc1cccc2ccccc12
inactive: dose: 100.0 mg/kg/injection, schedule: Q01DX001 (ip), vehicle: carboxymethylcellulose (CMC) 98 % of control | dose: 200.0 mg/kg/injection, schedule: Q01DX001 (ip), vehicle: carboxymethylcellulose (CMC) 93 % of control | dose: 400.0 mg/kg/injection, schedule: Q01DX001 (ip), vehicle: carboxymethylcellulose (CMC) 95 % of control

CCOC(=O)CCc1c[nH]c(C)c1C(=O)C(=O)OCC
inactive: [4] 95 % of control | [6] 93 % of control | [11] 98 % of control | [8] 102 % of control | dose: 400.0 mg/kg/injection, schedule: Q01DX001 (ip), vehicle: Klucel (hydroxypropylcellulose) (HPC) 95 % of control | [10] 96 % of control

CN(C)c1ccc(SSc2ccc(N(C)C)cc2)cc1
inactive: [14] 104 % of control | [2] 98 % of control | [15] 93 % of control | [3] 102 % of control | [16] 98 % of control | [12] 91 % of control

COc1cccc(C)c1NC1=NCCO1
inactive: dose: 1.56 mg/kg/injection, schedule: Q01DX009 (ip), vehicle: saline with Tween-80 97 % of control | dose: 1.56 mg/kg/injection, schedule: Q04DX003 (ip), vehicle: saline with Tween-80 97 % of control | dose: 3.13 mg/kg/injection, schedule: Q01DX009 (ip), vehicle: saline with Tween-80 116 % of control | dose: 3.13 mg/kg/injection, schedule: Q04DX003 (ip), vehicle: saline with Tween-80 100 % of control | [13] 101 % of control | dose: 6.25 mg/kg/injection, schedule: Q04DX003 (ip), vehicle: saline with Tween-80 100 % of control and 101 % of control | dose: 25.0 mg/kg/injection, schedule: Q04DX003 (ip), vehicle: saline with Tween-80 96 % of control

Nc1ccnn2nnnc12
inactive: [14] 97 % of control | [15] 91 % of control | [16] 97 % of control
